This is an account of results in US7101911B2, “Tryptase inhibitors” (Altana Pharma AG, priority 2001, dated 2006).

SMILES strings stand for the structures. Where a name gives a salt, the structure may show the parent alone.

The target in this experiment is human tryptase. Description: Inhibition of human tryptase (apparent dissociation constant, tos-Gly-Pro-Arg-pNA cleavage). Type of experiment: biochemical. Particulars: in the presence of substrate; heparin 0.1–50 μg/ml; equilibrium conditions; read-out: Kiapp (apparent dissociation constant of tryptase-inhibitor complex). The source says: The documented pathophysiological effects of mast cell tryptase are caused directly by the enzymatic activity of the protease. Accordingly, they are reduced or blocked by inhibitors which inhibit the enzymatic activity of the tryptase. A suitable measure for the affinity of a reversible inhibitor to the target protease is the equilibrium dissociation constant Ki of the enzyme-inhibitor complex. This Ki value can be determined via the effect of the inhibitor on the tryptase-induced cleavage of a chromogenic peptide-p-nitroanilide substrate or a fluorogenic peptide-aminomethylcoumarin substrate.
The dissociation constants for the tryptase-inhibitor complexes are determined under equilibrium conditions in accordance with the general proposals of Bieth (Bieth J G, Pathophysiological interpretation of kinetic constants of protease inhibitors, Bull. Europ. Physiopath. Resp. 16:183–195, 1980) and the methods of Sommerhoff et al. (Sommerhoff C P et al., A Kazal-type inhibitor of human mast cell tryptase: isolation from the medical leech Hirudo medicinalis, characterization, and sequence analysis, Biol. Chem. Hoppe-Seyler 375: 685–694, 1994).
Human tryptase is isolated from lung tissue or prepared recombinantly; the specific activity of the protease, determined by titration, is usually greater than 85% of the theoretical value. In the presence of heparin (0.1–50 μg/ml) for stabilizing the protease, constant amounts of the tryptase are incubated with increasing amounts of the inhibitors. After an equilibrium between the reaction partners has formed, the remaining enzyme activity after addition of the peptide-p-nitroanilide substrate tos-Gly-Pro-Arg-pNA is determined and the cleavage of the latter is monitored at 405 nm for 3 min. Alternatively, the remaining enzymatic activity can also be determined using fluorogenic substrates. The apparent dissociation constants Kiapp (i.e. in the presence of substrate) are subsequently determined by adapting the enzyme rates to the general equation for reversible inhibitors (Morrison J F, Kinetics of the reversible inhibition of enzyme-catalysed reactions by tight-binding inhibitors, Biochim. Biophys. Acta 185, 269–286, 1969) using non-linear regression: V1/V0=1−{Et+It+Kiapp−[(Et+It+Kiapp)^2−4EtIt]^1/2}/2Et
V1 and V0 are the rates in the presence and absence, respectively, of the inhibitor, and Et and It are the tryptase and inhibitor concentrations, respectively.
The apparent dissociation constants determined for the compounds according to the invention are shown in Table A below, where the numbers of the compounds correspond to the numbers of the compounds in the examples.
As for `NCc1cccc(CNC(=O)OCC#Cc2ccc(C#CCOC(=O)NCc3cccc(CN)c3)c(C(=O)O)c2)c1` [Compound 7, 2,5-Bis-[3-(3-aminomethylbenzylaminocarbonyloxy)prop-1-ynyl]benzoic acid dihydrochloride], the Ki turned out to be 8.6 nM.

In the case of `NCc1ccc(CNC(=O)OCC#Cc2cc(C#CCOC(=O)NCc3ccc(CN)cc3)cc(CO)c2)cc1` [Compound 1, 3,5-Bis-[3-(4-aminomethylbenzylaminocarbonyloxy)prop-1-ynyl]-1-hydroxymethyl-benzene dihydrochloride], the Ki turned out to be 14 nM.

As to `COC(=O)c1cc(C#CCOC(=O)NCc2cccc(CN)c2)cc(C#CCOC(=O)NCc2cccc(CN)c2)c1` [Compound 2, Methyl 3,5-bis-[3-(3-aminomethylbenzylaminocarbonyloxy)prop-1-ynyl]benzoate dihydrochloride], the Ki is 1.6 nM.

Consider `COC(=O)c1cc(C#CCOC(=O)NCc2ccc(CN)cc2)cc(C#CCOC(=O)NCc2ccc(CN)cc2)c1` [Compound 4, Methyl 3,5-bis-[3-(4-aminomethylbenzylaminocarbonyloxy)prop-1-ynyl]benzoate dihydrochloride], for which the Ki was 58 nM.

On to `NCc1ccc(CNC(=O)OCC#Cc2cc(C#CCOC(=O)NCc3ccc(CN)cc3)cc(C(=O)O)c2)cc1` [Compound 5, 3,5-Bis-[3-(4-aminomethylbenzylaminocarbonyloxy)prop-1-ynyl]benzoic acid dihydrochloride], for which the Ki turned out to be 250 nM.

For the molecule `COC(=O)c1cc(C#CCOC(=O)NCc2cccc(CN)c2)ccc1C#CCOC(=O)NCc1cccc(CN)c1` [Compound 6, Methyl 2,5-bis-[3-(3-aminomethylbenzylaminocarbonyloxy)prop-1-ynyl]benzoate dihydrochloride], the Ki is 0.3 nM.

In the case of `NCc1cccc(CNC(=O)OCC#Cc2cc(C#CCOC(=O)NCc3cccc(CN)c3)cc(C(=O)O)c2)c1` [Compound 3, 3,5-Bis-[3-(3-aminomethylbenzylaminocarbonyloxy)prop-1-ynyl]benzoic acid dihydrochloride], the Ki is 40 nM.

Regarding `CCOC(=O)c1cc(OCC#CCOC(=O)NCc2cccc(CN)c2)c(C(=O)OCC)cc1OCC#CCOC(=O)NCc1cccc(CN)c1` [Compound 9, Diethyl 2,5-bis-[4-(3-aminomethylbenzylaminocarbonyloxy)but-2-ynyl-1-oxy]terephthalate dihydrochloride], the Ki was 6 nM.

Take `COC(=O)c1cc(C#CCOC(=O)NCc2cccc(CN)c2)c(C(=O)OC)cc1C#CCOC(=O)NCc1cccc(CN)c1` [Compound 8, Dimethyl 2,5-bis-[3-(3-aminomethylbenzylaminocarbonyloxy)prop-1-ynyl]terephthalate dihydrochloride]: the Ki came to 2.3 nM.
